Measured values from the supplement of paper PMC11061612.

How the values were obtained:
Carboplatin = compound: C1CC(C1)(C(=O)[O-])C(=O)[O-].N.N.[Pt+2] [Carboplatin]; conditions: max 10 µM
Outline: (§1)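 Plates with 1536 wells received cancer cell lines in 7.5 μl of DMEM/F12 or RPMI containing 10% FBS. After 24 hours at 37°C and 5% CO2, cells were dosed for 72 hours with final DMSO typically 0.2%, and viability was read by CellTiter-Glo 2.0 luminescence scaled between blank-well and DMSO-well means. The single-agent IC50 was taken from a logistic fit of the dose responses made with a non-linear mixed effects model, that logistic curve having two parameters.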

AZD5363 = compound: C1CN(CCC1(C(=O)N[C@@H](CCO)C2=CC=C(C=C2)Cl)N)C3=NC=NC4=C3C=CN4 [AZD5363]; conditions: max 10 µM
Outline: as §1

AZD1775 = compound: C=CCn1c(=O)c2cnc(Nc3ccc(N4CCN(C)CC4)cc3)nc2n1-c1cccc(C(C)(C)O)n1 [AZD1775]; conditions: max 3 µM
Outline: as §1

Trametinib = compound: CC(=O)Nc1cccc(-n2c(=O)n(C3CC3)c(=O)c3c(Nc4ccc(I)cc4F)n(C)c(=O)c(C)c32)c1 [Trametinib]; conditions: max 1 µM
Outline: as §1

Paclitaxel = compound: CC(=O)O[C@H]1C(=O)[C@@]2(C)[C@H]([C@H](OC(=O)c3ccccc3)[C@]3(O)C[C@H](OC(=O)[C@H](O)[C@@H](NC(=O)c4ccccc4)c4ccccc4)C(C)=C1C3(C)C)[C@]1(OC(C)=O)CO[C@@H]1C[C@@H]2O [Paclitaxel]; conditions: max 3 µM
Outline: as §1

Palbociclib = compound: CC(=O)c1c(C)c2cnc(Nc3ccc(N4CCNCC4)cn3)nc2n(C2CCCC2)c1=O [Palbociclib]; conditions: max 10 µM
Outline: as §1

AZD1390 = compound: CC(C)n1c(=O)n(C)c2cnc3cc(F)c(-c4ccc(OCCCN5CCCCC5)nc4)cc3c21 [AZD1390]; conditions: max 0.3 µM
Outline: as §1

Venetoclax = compound: CC1(C)CCC(CN2CCN(c3ccc(C(=O)NS(=O)(=O)c4ccc(NCC5CCOCC5)c([N+](=O)[O-])c4)c(Oc4cnc5[nH]ccc5c4)c3)CC2)=C(c2ccc(Cl)cc2)C1 [Venetoclax]; conditions: max 1 µM
Outline: as §1

Dasatinib = compound: CC1=C(C(=CC=C1)Cl)NC(=O)C2=CN=C(S2)NC3=CC(=NC(=N3)C)N4CCN(CC4)CCO [Dasatinib]; conditions: max 2 µM
Outline: as §1

SG3199 = compound: CC1=CN2[C@@H](C1)C=NC3=CC(=C(C=C3C2=O)OC)OCCCCCOC4=C(C=C5C(=C4)N=C[C@@H]6CC(=CN6C5=O)C)OC [SG3199]; conditions: max 0.001 µM
Outline: as §1

AZD2811 = compound: CCN(CCO)CCCOc1ccc2c(Nc3cc(CC(=O)Nc4cccc(F)c4)[nH]n3)ncnc2c1 [AZD2811]; conditions: max 1 µM
Outline: as §1

SN-38 = compound: CCc1c2c(nc3ccc(O)cc13)-c1cc3c(c(=O)n1C2)COC(=O)[C@]3(O)CC [SN-38]; conditions: max 0.3 µM
Outline: as §1

AZD0156 = compound: CN(C)CCCOc1ccc(-c2ccc3ncc4c(c3c2)n(C2CCOCC2)c(=O)n4C)cn1 [AZD0156]; conditions: max 3 µM
Outline: as §1

AZD4320 = compound: CN(CC[C@H](CSC1=CC=CC=C1)NC2=C(C=C(C=C2)S(=O)(=O)NC(=O)C3=CC=C(C=C3)N4CCC(CC4)[C@H](C5=CC=CC=C5C6=CC=C(C=C6)Cl)O)S(=O)(=O)C(F)(F)F)CCO [AZD4320]; conditions: max 1 µM
Outline: as §1

Alisertib = compound: COc1cc(Nc2ncc3c(n2)-c2ccc(Cl)cc2C(c2c(F)cccc2OC)=NC3)ccc1C(=O)O [Alisertib]; conditions: max 10 µM
Outline: as §1

Etoposide = compound: COc1cc([C@@H]2c3cc4c(cc3[C@@H](O[C@@H]3O[C@@H]5CO[C@@H](C)O[C@H]5[C@H](O)[C@H]3O)[C@H]3COC(=O)[C@H]23)OCO4)cc(OC)c1O [Etoposide]; conditions: max 10 µM
Outline: as §1

Gefitinib = compound: COc1cc2ncnc(Nc3ccc(F)c(Cl)c3)c2cc1OCCCN1CCOCC1 [Gefitinib]; conditions: max 10 µM
Outline: as §1

Prexasertib = compound: COc1cccc(OCCCN)c1-c1cc(Nc2cnc(C#N)cn2)n[nH]1 [Prexasertib]; conditions: max 1 µM
Outline: as §1

Doxorubicin = compound: COc1cccc2c1C(=O)c1c(O)c3c(c(O)c1C2=O)C[C@@](O)(C(=O)CO)C[C@@H]3O[C@H]1C[C@H](N)[C@H](O)[C@H](C)O1 [Doxorubicin]; conditions: max 1 µM
Outline: as §1

AZD5153 = compound: COc1nnc2ccc(N3CCC(c4ccc(OCCN5CCN(C)C(=O)[C@H]5C)cc4)CC3)nn12 [AZD5153]; conditions: max 1 µM
Outline: as §1

Lapatinib = compound: CS(=O)(=O)CCNCc1ccc(-c2ccc3ncnc(Nc4ccc(OCc5cccc(F)c5)c(Cl)c4)c3c2)o1 [Lapatinib]; conditions: max 10 µM
Outline: as §1

AZD8186 = compound: C[C@@H](Nc1cc(F)cc(F)c1)c1cc(C(=O)N(C)C)cc2c(=O)cc(N3CCOCC3)oc12 [AZD8186]; conditions: max 10 µM
Outline: as §1

Crizotinib = compound: C[C@@H](Oc1cc(-c2cnn(C3CCNCC3)c2)cnc1N)c1c(Cl)ccc(F)c1Cl [Crizotinib]; conditions: max 10 µM
Outline: as §1

Savolitinib = compound: C[C@@H](c1ccc2nccn2c1)n1nnc2ncc(-c3cnn(C)c3)nc21 [Savolitinib]; conditions: max 1 µM
Outline: as §1

AZD6738 = compound: C[C@@H]1COCCN1C2=NC(=NC(=C2)C3(CC3)[S@](=N)(=O)C)C4=C5C=CNC5=NC=C4 [AZD6738]; conditions: max 10 µM
Outline: as §1

AZD5991 = compound: Cc1c2c(nn1C)CSCc1cc(n(C)n1)CSc1cc(c3ccccc3c1)OCCCc1c(C(=O)O)n(C)c3c-2c(Cl)ccc13 [AZD5991]; conditions: max 1 µM
Outline: as §1

AZD7648 = compound: Cc1cc2ncnn2cc1Nc1ncc2c(n1)n(C1CCOCC1)c(=O)n2C [AZD7648]; conditions: max 10 µM
Outline: as §1

Taselisib = compound: Cc1nc(-c2cn3c(n2)-c2ccc(-c4cnn(C(C)(C)C(N)=O)c4)cc2OCC3)n(C(C)C)n1 [Taselisib]; conditions: max 10 µM
Outline: as §1

Selumetinib = compound: Cn1cnc2c(F)c(Nc3ccc(Br)cc3Cl)c(C(=O)NOCCO)cc21 [Selumetinib]; conditions: max 10 µM
Outline: as §1

SRA737 = compound: N#Cc1cnc(Nc2cc(NC[C@H]3CNCCO3)c(C(F)(F)F)cn2)cn1 [SRA737]; conditions: max 10 µM
Outline: as §1

MK-2206 = compound: NC1(c2ccc(-c3nc4ccn5c(=O)[nH]nc5c4cc3-c3ccccc3)cc2)CCC1 [MK-2206]; conditions: max 10 µM
Outline: as §1

Gemcitabine = compound: Nc1ccn([C@@H]2O[C@H](CO)[C@@H](O)C2(F)F)c(=O)n1 [Gemcitabine]; conditions: max 0.3 µM
Outline: as §1

[1] = compound: O=C(Nc1ccc2[nH]nc(-c3ccncc3)c2c1)[C@@H]1CCN(CC(=O)N2CCN(c3ccc(-c4ncccn4)cc3)CC2)C1; conditions: max 5 µM
Outline: as §1

Olaparib = compound: O=C(c1cc(Cc2n[nH]c(=O)c3ccccc23)ccc1F)N1CCN(C(=O)C2CC2)CC1 [Olaparib]; conditions: max 10 µM
Outline: as §1

5-Fluorouracil = compound: O=c1[nH]cc(F)c(=O)[nH]1 [5-Fluorouracil]; conditions: max 20 µM
Outline: as §1

Cell Line	IC50, cell viability 72 h (Carboplatin) [nM]	IC50, cell viability 72 h (AZD5363) [nM]	IC50, cell viability 72 h (AZD1775) [nM]	IC50, cell viability 72 h (Trametinib) [nM]	IC50, cell viability 72 h (Paclitaxel) [nM]	IC50, cell viability 72 h (Palbociclib) [nM]	IC50, cell viability 72 h (AZD1390) [nM]	IC50, cell viability 72 h (Venetoclax) [nM]	IC50, cell viability 72 h (Dasatinib) [nM]	IC50, cell viability 72 h (SG3199) [nM]	IC50, cell viability 72 h (AZD2811) [nM]	IC50, cell viability 72 h (SN-38) [nM]	IC50, cell viability 72 h (AZD0156) [nM]	IC50, cell viability 72 h (AZD4320) [nM]	IC50, cell viability 72 h (Alisertib) [nM]	IC50, cell viability 72 h (Etoposide) [nM]	IC50, cell viability 72 h (Gefitinib) [nM]	IC50, cell viability 72 h (Prexasertib) [nM]	IC50, cell viability 72 h (Doxorubicin) [nM]	IC50, cell viability 72 h (AZD5153) [nM]	IC50, cell viability 72 h (Lapatinib) [nM]	IC50, cell viability 72 h (AZD8186) [nM]	IC50, cell viability 72 h (Crizotinib) [nM]	IC50, cell viability 72 h (Savolitinib) [nM]	IC50, cell viability 72 h (AZD6738) [nM]	IC50, cell viability 72 h (AZD5991) [nM]	IC50, cell viability 72 h (AZD7648) [nM]	IC50, cell viability 72 h (Taselisib) [nM]	IC50, cell viability 72 h (Selumetinib) [nM]	IC50, cell viability 72 h (SRA737) [nM]	IC50, cell viability 72 h (MK-2206) [nM]	IC50, cell viability 72 h (Gemcitabine) [nM]	IC50, cell viability 72 h [1] [nM]	IC50, cell viability 72 h (Olaparib) [nM]	IC50, cell viability 72 h (5-Fluorouracil) [nM]
SNU-423 (Hepatocellular Carcinoma)	> 10000	> 10000	2150	> 1000	124	> 10000	> 300	> 1000	> 2000	> 1	> 1000	> 300	> 3000	> 1000	> 10000	> 10000	> 10000	166	> 1000	> 1000	> 10000	> 10000	> 10000	> 1000	> 10000	> 1000	> 10000	> 10000	> 10000	> 10000	> 10000	> 300	> 5000	> 10000	> 20000
IA-LM (Non-Small Cell Lung Carcinoma)	> 10000	> 10000	> 3000	> 1000	> 3000	> 10000	> 300	> 1000	> 2000	> 1	> 1000	50	> 3000	> 1000	> 10000	> 10000	> 10000	> 1000	> 1000	> 1000	> 10000	> 10000	> 10000	> 1000	> 10000	> 1000	> 10000	> 10000	> 10000	> 10000	> 10000	> 300	> 5000	> 10000	> 20000
SK-N-SH (Neuroblastoma)	> 10000	> 10000	1440	> 1000	77.4	> 10000	> 300	> 1000	> 2000	> 1	> 1000	2.92	> 3000	794	59.3	667	> 10000	26.5	66.9	> 1000	> 10000	> 10000	2410	> 1000	2260	> 1000	> 10000	1520	> 10000	> 10000	> 10000	58.5	> 5000	> 10000	> 20000
MDA-MB-415 (Breast Carcinoma)	> 10000	727	> 3000	> 1000	29.8	> 10000	> 300	> 1000	> 2000	> 1	> 1000	> 300	> 3000	847	> 10000	> 10000	> 10000	> 1000	> 1000	> 1000	> 10000	216	> 10000	> 1000	> 10000	> 1000	> 10000	6010	> 10000	> 10000	1250	> 300	> 5000	> 10000	> 20000
LCLC-103H (Non-Small Cell Lung Carcinoma)	> 10000	> 10000	2190	> 1000	17.8	> 10000	> 300	> 1000	> 2000	> 1	> 1000	> 300	> 3000	> 1000	> 10000	> 10000	> 10000	88.1	> 1000	> 1000	> 10000	> 10000	> 10000	> 1000	> 10000	> 1000	> 10000	> 10000	> 10000	> 10000	> 10000	> 300	> 5000	> 10000	> 20000
